Source: patent publication US20230168203A9, “Pyrogallarene Chelating and Sequestering Agents” (Kinsey Spiel, priority 2018, published 2023)
Where two headings read alike, the source gives them in different places.

Assays:
[1] = Example B: precipitate formation of C-ethyl pyrogallarene colloid (from saturated methanol) after adding metal chlorides
Description: Some metals required more time for a precipitate to form.

[2] = Example C: C-ethyl pyrogallol[4]arene colloid (from acetone stock) after adding chloride salts
Description: Upon dispensing this aliquot the aqueous solutions were colorless white colloids. Various chloride salts were added to the solution including […], Tungsten(IV) chloride, Strontium chloride, Titanium chloride, Zirconyl (IV) chloride octahydrate, Aluminum chloride, and Hafnium chloride. All metal salts were colorless except Tungsten(IV) chloride, which was light green, and Titanium chloride, which was a yellow solution. […] All other colloids appeared unchanged immediately after the addition of the metal. This may be a result of no chelation or slow reaction kinetics for the chelated complex. Finally, one additional salt, colorless Gadolinium Chloride, was tested. […] As stated previously, various examples may indicate chelation and sequestration by pyrogallarenes on a PPM level, owing to the solubility of various chloride salts. For example, PbCl2 is very poorly soluble in water.

[3] = Description: A stock solution of was made of 100 mg of purified C-ethyl pyrogallol[4]arene dissolved in 20 mL of acetone. 1 mL aliquots of this stock solution were dispensed into vials containing 20 mL of water. Sample one contained TDS of 330, Ca of 30 ppm, Mg of 26 ppm, K of 1 ppm, Si of 15 ppm, bicarbonate of 360 ppm, Pb of <0.001, and a pH of 7.2. Sample two contained TDS of 222, Ca of 18 ppm, Mg of 15 ppm, K of 5.3 ppm, Si of 93 ppm, bicarbonate of 152 ppm, and a pH of 7.7. Sample three contained TDS of 44, Ca of 5 ppm, Mg of 1 ppm, K of 0 ppm, bicarbonate of 20 ppm, and a pH of 7.8.
[4] = Solid state contact of nearly dry pyrogallarenes with stainless steel spatula; conditions: freshly-synthesized
Description: Pyrogallarenes, including C-methyl Pyrogallol[4]arene, C-ethyl Pyrogallol[4]arene, and C-propyl pyrogallol[4]arene, have a high affinity for metals, even in a homogeneous solid state reaction. For example, a stainless steel spatula in contact with these freshly-synthesized and not completely dry (nearly dry) pyrogallarenes results in a color shift from white to blue where the spatula came in contact with the pyrogallol[4]arene. This example may illustrate, as in previous examples, that a chelation reaction has occurred.

[5] = Heterogeneous chelation: solid pyrogallol[4]arene dispensed into unpurified aqueous solution
Remark: listed apart in the source
[6] = Example A: colour of C-propyl pyrogallol[4]arene colloid in deionized water after adding metal chloride salts (chelation indicator)
Description: A stock solution of was made of 400 mg of purified C-propyl pyrogallol[4]arene dissolved in 20 mL of acetone. […] Upon dispensing this aliquot the aqueous solutions were a colorless white colloid. The colloid appeared to be somewhat translucent. Upon dispensing NaCl into one colorless colloid the color was unchanged. Then various chloride salts of metals were added to colorless C-propyl pyrogallol[4]arene colloids. Upon adding ZnCl2 the colloid turned light brown. Upon adding MgCl2 the colloid turned pink. Upon adding Fe(III)Cl3 the colloid turned grey. Upon adding Cu(I)Cl the colloid turned brown. Upon adding CaCl2 the colloid turned pink. Upon adding Cr(III)Cl3 the colloid turned green. Upon adding BaCl2.2H2O the colloid turned pink. Upon adding MnCl2 the colloid turned salmon. Upon adding NiCl2 the colloid turned salmon.
In Example A, half of the metal salts, ZnCl2, MgCl2, CaCl2, and BaClz.2H2O, were colorless in their solid form, before adding them to the colloid. Pyrogallarene chelation is evident as a colorless salts are added to a colorless colloid and varying colors result. Five of the salts were colored in their solid form. […] Although Fe(III)Cl3 was brownish red in its solid form the resulting colloid solution was grey. Cu(I)Cl was green in its solid form but the resulting colloid solution was brown. NiCl2 was green in its solid form but the resulting colloid solution was pink.

[7] = Resilience of chelated precipitate at high temperature; type: physicochemical
Description: Unlike some solids where solubility increases rapidly with increasing temperature the pyrogallarene chelated precipitate is resilient at high temperature. […] A chelate made from C-propyl pyrogallol[4]arene and a variety of metals is also undissolved at 80° C. […] However, heterogeneous pyrogallol[4]arene chelation complexes appear to dissolve minimally into aqueous solutions, limited by a low Ksp as discussed above.

With `CCC1c2cc(c(O)c(O)c2O)C(CC)c2cc(c(O)c(O)c2O)C(CC)c2cc(c(O)c(O)c2O)C(CC)c2cc1c(O)c(O)c2O` (centres unmarked) [C-ethyl pyrogallol[4]arene] the precipitate formed ([1]; BaClz.2H2O, 24 hours later) was “white precipitate”, the precipitate formed ([1]; CaCl2 added, immediately) was “blue precipitate” and the precipitate formed ([1]; Cr(III)Cl3, 24 hours later) was “white precipitate”. The precipitate formed ([1]; Cu(I)Cl, 24 hours later) was “grey precipitate”, the precipitate formed ([1]; NiClz, 24 hours later) was “white precipitate” and the precipitate formed ([1]; PbCl2 added, immediately) was “blue precipitate”. The precipitate formed ([1]; ZnCl2 added, immediately) was “blue precipitate”, the observation on colloid ([2]; Aluminum chloride added, immediately after addition) was “unchanged” and the observation on colloid ([2]; Gadolinium Chloride added) was “purple precipitate”. For the same compound, the observation on colloid ([2]; Hafnium chloride added) was “grey precipitate”, the observation on colloid ([2]; Strontium chloride added) was “white precipitate” and the observation on colloid ([2]; Titanium chloride added, immediately after addition) was “unchanged”. For the same compound, the observation on colloid ([2]; Tungsten(IV) chloride added, immediately after addition) was “unchanged”, the observation on colloid ([2]; Yttrium(II) chloride hydrate added) was “purple precipitate” and the observation on colloid ([2]; Zirconyl (IV) chloride octahydrate added) was “clear grey solution”. The “observation on water sample” value ([3]; Sample four: pH 9.4) was “pink colored solution”, the “observation on water sample” value ([3]; Sample one: TDS 330, Ca 30 ppm, Mg 26 ppm, pH 7.2) was “dense blue precipitate” and the “observation on water sample” value ([3]; Sample three: TDS 44, Ca 5 ppm, Mg 1 ppm, pH 7.8, several days) was “did not produce a precipitate”. The “observation on water sample” value ([3]; Sample two: TDS 222, Ca 18 ppm, Mg 15 ppm, pH 7.7, over a few minutes) was “diffuse blue precipitate”, the “color shift where spatula came in contact” value [4] was “white to blue” and the dissolution of solid ([5]; solid in unpurified aqueous solution) was “almost completely undissolved”. The “shift of absorbance colour of solid” value ([5]; solid, colorless compound in unpurified aqueous solution) was “blue” and the solubility in water was “mostly insoluble”.
In the case of `CCCC1c2cc(c(O)c(O)c2O)C(CCC)c2cc(c(O)c(O)c2O)C(CCC)c2cc(c(O)c(O)c2O)C(CCC)c2cc1c(O)c(O)c2O` (centres unmarked) [C-propyl pyrogallol[4]arene], the colour of colloid ([6]; BaCl2.2H2O added) is reported as “pink”, the colour of colloid ([6]; CaCl2 added) is reported as “pink” and the colour of colloid ([6]; Cr(III)Cl3 added) is reported as “green”. For the same compound, the colour of colloid ([6]; Cu(I)Cl added) was “brown”, the colour of colloid ([6]; Fe(III)Cl3 added) was “grey” and the colour of colloid ([6]; MgCl2 added) was “pink”. The colour of colloid ([6]; MnCl2 added) was “salmon”, the colour of colloid ([6]; NaCl added) was “unchanged” and the colour of colloid ([6]; NiCl2 added) was “salmon”. The colour of colloid ([6]; ZnCl2 added) was “light brown”, the “color shift where spatula came in contact” value [4] was “white to blue” and the stability of chelate ([7]; chelate with PbCl2, 80° C) was “stable and undissolved”. The stability of chelate ([7]; chelate with a variety of metals, 80° C) was “undissolved” and the solubility in water was “only slightly soluble”.
In the case of `CC1c2cc(c(O)c(O)c2O)C(C)c2cc(c(O)c(O)c2O)C(C)c2cc(c(O)c(O)c2O)C(C)c2cc1c(O)c(O)c2O` (centres unmarked) [C-methyl Pyrogallol[4]arene], the “color shift where spatula came in contact” value [4] is reported as “white to blue”.
